Measurements taken from patent US20030013694A1, “Use and compositions of antiprogestins for treatment of prostate diseases” (priority 2001, published 2003).

Experiments:
[1] = tested on: LNCaP prostate tumor cells; assay: LNCaP human prostate cancer model in testosterone-supplemented male nude mice; type: in vivo; settings: compared to control and castration
Experimental: Male nude mice (M&B) were supplemented with testosterone pellets (Innovative Research of America). LNCaP prostate cancer cells (obtainable from ATCC), obtained from cell culture and suspended in matrigel, were implanted s.c. in the inguinal region of the mice. Treatment was started when the tumors were approximately 25 mm^2 in size. Treatment was continued until progression of the tumors, Experimental groups were: 1) control (vehicle), 2) castration, 3) the antiandrogen casodex, 30 mg/kg s.c., 4) the antiprogestin mifepristone (RU-486), 10 mg/kg sec., and 5) 11β-(4-acetylphenyl)-17β-hydroxy-17α-(1,1,2,2,2-pentafluoroethyl)-estra-4,9-dien-3-one (antiprogestin (I)), 10 mg/kg sc., 5 times weekly. The tumor area was determined by caliper measurements. The Kruskal Wallis test was used for statistical analysis of intergroup differences of mean values. The tumor weight was determined at the end of the experiment.

R3327H = settings: administered alone; R3327H prostate cancer model; cited from earlier work
[2] = tested on: androgen-independent prostate cancer cells; settings: in vitro and in vivo; cited from earlier work

Row | SMILES | tumor growth inhibition (tumor area by caliper) ([1]; 30 mg/kg s.c.) | tumor growth inhibition (tumor area by caliper) ([1]; 10 mg/kg s.c., 5 times weekly) | inhibition of tumor growth (R3327H) | effect on apoptosis [2]
1 | CC(O)(CS(=O)(=O)c1ccc(F)cc1)C(=O)Nc1ccc(C#N)c(C(F)(F)F)c1 (centres unmarked) [casodex] | totally ineffective | – | – | –
2 | CC#C[C@]1(O)CC[C@H]2[C@@H]3CCC4=CC(=O)CCC4=C3[C@@H](c3ccc(N(C)C)cc3)C[C@@]21C [mifepristone] | – | totally ineffective | substantial inhibition of tumor growth | effective inhibitors of apoptosis
3 | CC/C(=C(\c1ccccc1)c1ccc(OCCN(C)C)cc1)c1ccccc1 [tamoxifen] | – | – | – | effective inhibitors of apoptosis
